Reference: US20240391921A1, “CRYSTAL FORM OF IMIDAZOLINONE DERIVATIVE” (CHENGDU BAIYU PHARMACEUTICAL CO., LTD., priority 2021, published 2024)

Assays:
[1] = Pharmacokinetic assay in ICR mice; assay type: in vivo; conditions: male ICR mice, iv 1 mg/kg and po 10 mg/kg, plasma by LC/MS/MS
Protocol: ICR mice (purchased from Beijing Viton Lihua Laboratory Animal Technology Co.)
2.2 Experimental procedure • (1) Healthy male ICR mice (18-22 g) were prepared, with 18 mice for each compound which were divided into 2 groups (iv and po groups) of 9 mice each, and 3 mice were selected for blood collection at each time point. • (2) After fasting (free water intake) overnight, the compound of the invention was solubilized (or formed into a suspension) with 5% DMSO, 95% 30% HP-β-CD (v: v) as solvent. The compound was administered via the tail vein (iv, 1 mg/kg) and by gavage (po, 10 mg/kg), respectively. • (3) In the iv group, 0.1 mL of blood was collected from the submandibular vein at 5 min, 15 min, 0.5 h, 1 h, 2 h, 4 h, 8 h, 12 h, and 24 h, respectively, and the blood was anticoagulated with EDTA-K2, and then centrifuged at 4° C. for 5 min to separate the plasma, which was stored at-20° C. before measurement. • (4) In the po group, 0.1 mL of blood was collected from the submandibular vein before and after administration at 15 min, 0.5h, 1h, 2h, 4h, 6h, 8h, 12h and 24h respectively, and processed in the same manner as in the iv group. • (5) The concentration of the compound of the present invention in plasma was determined by a LC/MS/MS method. • (6) The results were calculated and fitted using Analyst 1.6 from AB.

[2] = Dynamic vapor sorption (DVS) test; assay type: physicochemical
Protocol: The crystalline form I of Compound A prepared in Example 3 was subjected to dynamic vapor sorption test, and the dynamic vapor sorption (DVS) curves were acquired on DVS Intrinsic of SMS (Surface Measurement Systems). The relative humidity at 25° C. was corrected with the deliquescence points of LiCl, Mg (NO3)2, and KCl.

[3] = Solid-state stability (XRPD for physical, HPLC purity for chemical stability); assay type: physicochemical

Compound	pharmacokinetic properties [1]	change in sample weight (DVS) ([2]; 0% RH-95% RH-0% RH at 25° C.)	hygroscopicity (DVS) ([2]; 0% RH-95% RH-0% RH at 25° C.)	transformation of crystalline form before and after DVS (XRPD comparison) ([2]; XRPD before and after DVS)	solid-state stability: crystalline transformation (XRPD) and purity (HPLC) ([3]; 25° C./60% RH/open, 1 week)	solid-state stability: crystalline transformation (XRPD) and purity (HPLC) ([3]; 40° C./75% RH/open, 1 week)	solid-state stability: crystalline transformation (XRPD) and purity (HPLC) ([3]; 60° C./close, 1 day)	solid-state stability: crystalline transformation (XRPD) and purity (HPLC) ([3]; 80° C./close, 1 day)
CCn1c(=O)n(C2CCOCC2)c2nc(Nc3cc(F)c(C(N)=O)cc3C)ncc21 [Compound A, 4-((7-ethyl-8-oxo-9-(tetrahydro-2H-pyran-4-yl)-8,9-dihydro-7H-purin-2-yl)amino)-2-fluoro-5-methylbenzamide]	good pharmacokinetic properties	–	–	–	–	–	–	–
CCn1c(=O)n(C2CCOCC2)c2nc(Nc3cc(F)c(C(N)=O)cc3C)ncc21 [crystalline form I, 4-((7-ethyl-8-oxo-9-(tetrahydro-2H-pyran-4-yl)-8,9-dihydro-7H-purin-2-yl)amino)-2-fluoro-5-methylbenzamide]	–	less than 0.2%	free or almost free of hygroscopicity	no transformation of crystalline form occurred	no crystalline transformation or decrease in purity was observed	no crystalline transformation or decrease in purity was observed	no crystalline transformation or decrease in purity was observed	no crystalline transformation or decrease in purity was observed
